Source: patent US9777003B2, “Tricyclic heterocycles as bet protein inhibitors” (Incyte Corporation, priority 2013, dated 2017)
Where a name gives a salt, the structure may show the parent alone.

Key:
BRD4-BD2 = BRD4-BD2 (Homo sapiens (Human), UniProt O60885); experiment: BRD4 AlphaScreen assay, BRD4-BD2; format: binding; conditions: biotin-labeled tetra-acetylated histone H4 peptide, 75 min, room temperature, read-out: BRD4 BD-2 enzyme IC50
How it was run: (§1)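 AlphaScreen displacement of 50 nM biotin-tetra-acetylated H4 peptide from 3.8 nM BRD4-BD1 (1.25% DMSO) or 20 nM BRD4-BD2 (0.83% DMSO) in HEPES pH 7.4 buffer, 75 min RT. Streptavidin donor/GSH acceptor beads added, 75 min dark; IC50 from log-concentration curve fit.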

BRD4-BD1 = BRD4-BD1 (Homo sapiens (Human), UniProt O60885); experiment: BRD4 AlphaScreen assay, BRD4-BD1; format: binding; conditions: biotin-labeled tetra-acetylated histone H4 peptide, 75 min, room temperature, read-out: BRD4 BD-1 enzyme IC50
How it was run: as §1

| IC50 (BRD4-BD2) [nM] | IC50 (BRD4-BD1) [nM] | Compound |
| --- | --- | --- |
| ≤ 100 | ≤ 100 | Cc1nnc2ccc3c(cc(C(=O)NCC(C)C)n3Cc3cccc(Cl)c3)n12 [Example 129, 6-(3-Chlorobenzyl)-N-isobutyl-1-methyl-6H-pyrrolo[2,3-e][1,2,4]triazolo[4,3-a]pyridine-7-carboxamide Trifluoroacetate Salt] |
| ≤ 100 | ≤ 100 | CNC(=O)c1cc2c(ccc3nnc(C)n32)n1Cc1cc(Cl)cc(CN2CCC2)c1 [Example 131, 6-[3-(Azetidin-1-ylmethyl)-5-chlorobenzyl]-N,1-dimethyl-6H-pyrrolo[2,3-e][1,2,4]triazolo[4,3-a]pyridine-7-carboxamide bis(trifluoroacetate) Salt] |
| ≤ 100 | ≤ 100 | CCNC(=O)c1cc2c(ccc3nnc(C)n32)n1Cc1cc(Cl)cc(CN2CCCC2)c1 [Example 133, 6-[3-Chloro-5-(pyrrolidin-1-ylmethyl)benzyl]-N-ethyl-1-methyl-6H-pyrrolo[2,3-e][1,2,4]triazolo[4,3-a]pyridine-7-carboxamide bis(trifluoroacetate) Salt] |
| ≤ 100 | ≤ 100 | CNC(=O)c1cc2c(ccc3nnc(C)n32)n1Cc1cc(Cl)cc(CN2CCC(F)(F)C2)c1 [Example 134, 6-{3-Chloro-5-[(3,3-difluoropyrrolidin-1-yl)methyl]benzyl}-N,1-dimethyl-6H-pyrrolo[2,3-e][1,2,4]triazolo[4,3-a]pyridine-7-carboxamide 2.4×(trifluoroacetate) Salt] |
| ≤ 100 | ≤ 100 | CNC(=O)c1cc2c(ccc3nnc(C)n32)n1Cc1cc(Cl)cc(CN2CC(C)(C)C2)c1 [Example 135, 6-{3-Chloro-5-[(3,3-dimethylazetidin-1-yl)methyl]benzyl}-N,1-dimethyl-6H-pyrrolo[2,3-e][1,2,4]triazolo[4,3-a]pyridine-7-carboxamide bis(trifluoroacetate) Salt] |
| ≤ 100 | ≤ 100 | CNC(=O)c1cc2c(ccc3nnc(C)n32)n1Cc1cccc(C(F)(F)F)c1 [Example 136, N,1-dimethyl-6-[3-(trifluoromethyl)benzyl]-6H-pyrrolo[2,3-e][1,2,4]triazolo[4,3-a]pyridine-7-carboxamide Trifluoroacetate Salt] |
| ≤ 100 | ≤ 100 | CCNC(=O)c1cc2c(ccc3nnc(C)n32)n1Cc1cccc(C(F)(F)F)c1 [Example 137, N-Ethyl-1-methyl-6-[3-(trifluoromethyl)benzyl]-6H-pyrrolo[2,3-e][1,2,4]triazolo[4,3-a]pyridine-7-carboxamide Trifluoroacetate Salt] |
| 100 to 1000 | 100 to 1000 | Cc1nnc2ccc3c(cc(C(F)(F)F)n3Cc3ccccc3)n12 [Example 138, 6-Benzyl-1-methyl-7-(trifluoromethyl)-6H-pyrrolo[2,3-e][1,2,4]triazolo[4,3-a]pyridine Trifluoroacetate Salt] |
| ≤ 100 | ≤ 100 | CNC(=O)Nc1cc2c(cc(C)n2Cc2cc(Cl)cc(CN3CCCC3)c2)n2c(C)nnc12 [Example 142, N-{6-[3-Chloro-5-(pyrrolidin-1-ylmethyl)benzyl]-1,7-dimethyl-6H-pyrrolo[2,3-e][1,2,4]triazolo[4,3-a]pyridin-4-yl}-N′-methylurea bis(trifluoroacetate) Salt] |
| ≤ 100 | ≤ 100 | Cc1cc2c(cc(NC3CCOCC3)c3nnc(C)n32)n1Cc1ccccc1 [Example 146, 6-benzyl-1,7-dimethyl-N-(tetrahydro-2H-pyran-4-yl)-6H-pyrrolo[2,3-e][1,2,4]triazolo[4,3-a]pyridin-4-amine] |
| ≤ 100 | ≤ 100 | Cc1cc2c(cc(N[C@@H]3CCOC3)c3nnc(C)n32)n1Cc1ccccc1 [Example 147, 6-benzyl-1,7-dimethyl-N-[(3R)-tetrahydrofuran-3-yl]-6H-pyrrolo[2,3-e][1,2,4]triazolo[4,3-a]pyridin-4-amine] |
| ≤ 100 | ≤ 100 | Cc1cc2c(cc(N[C@H]3CCOC3)c3nnc(C)n32)n1Cc1ccccc1 [Example 148, 6-benzyl-1,7-dimethyl-N-[(3S)-tetrahydrofuran-3-yl]-6H-pyrrolo[2,3-e][1,2,4]triazolo[4,3-a]pyridin-4-amine] |
| ≤ 100 | 100 to 1000 | Cc1cc2c(cc(N[C@@H]3CCN(C(=O)OC(C)(C)C)C3)c3nnc(C)n32)n1Cc1ccccc1 [Example 149, tert-butyl (3R)-3-[(6-benzyl-1,7-dimethyl-6H-pyrrolo[2,3-e][1,2,4]triazolo[4,3-a]pyridin-4-yl)amino]pyrrolidine-1-carboxylate] |
| ≤ 100 | ≤ 100 | Cc1cc2c(cc(N[C@H]3CCN(C(=O)OC(C)(C)C)C3)c3nnc(C)n32)n1Cc1ccccc1 [Example 150, tert-butyl (3S)-3-[(6-benzyl-1,7-dimethyl-6H-pyrrolo[2,3-e][1,2,4]triazolo[4,3-a]pyridin-4-yl)amino]pyrrolidine-1-carboxylate] |
| ≤ 100 | ≤ 100 | Cc1cc2c(cc(N[C@@H]3CCNC3)c3nnc(C)n32)n1Cc1ccccc1 [Example 151, 6-benzyl-1,7-dimethyl-N-[(3R)-pyrrolidin-3-yl]-6H-pyrrolo[2,3-e][1,2,4]triazolo[4,3-a]pyridin-4-amine bis(trifluoroacetate) Salt] |
| ≤ 100 | ≤ 100 | Cc1cc2c(cc(N[C@H]3CCNC3)c3nnc(C)n32)n1Cc1ccccc1 [Example 152, 6-benzyl-1,7-dimethyl-N-[(3S)-pyrrolidin-3-yl]-6H-pyrrolo[2,3-e][1,2,4]triazolo[4,3-a]pyridin-4-amine bis(trifluoroacetate) Salt] |
| ≤ 100 | ≤ 100 | Cc1cc2c(cc(NC3CCN(C)CC3)c3nnc(C)n32)n1Cc1ccccn1 [Example 153, 1,7-dimethyl-N-(1-methylpiperidin-4-yl)-6-(pyridin-2-ylmethyl)-6H-pyrrolo[2,3-e][1,2,4]triazolo[4,3-a]pyridin-4-amine] |
| ≤ 100 | ≤ 100 | Cc1cc2c(cc(NC3CCN(C)CC3)c3nnc(C)n32)n1Cc1cccnc1 [Example 154, 1,7-dimethyl-N-(1-methylpiperidin-4-yl)-6-(pyridin-3-ylmethyl)-6H-pyrrolo[2,3-e][1,2,4]triazolo[4,3-a]pyridin-4-amine] |
| ≤ 100 | ≤ 100 | Cc1nnc2ccc3c(cc(-c4ccn[nH]4)n3Cc3cccc(Cl)c3)n12 [Example 155, 6-(3-chlorobenzyl)-1-methyl-7-(1H-pyrazol-5-yl)-6H-pyrrolo[2,3-e][1,2,4]triazolo[4,3-a]pyridine bis(trifluoroacetate) Salt] |
| ≤ 100 | ≤ 100 | CCN1CC(CC#N)(n2ccc(-c3cc4c(ccc5nnc(C)n54)n3Cc3cccc(Cl)c3)n2)C1 [Example 158, (3-{3-[6-(3-Chlorobenzyl)-1-methyl-6H-pyrrolo[2,3-e][1,2,4]triazolo[4,3-a]pyridin-7-yl]-1H-pyrazol-1-yl}-1-ethylazetidin-3-yl)acetonitrile bis(trifluoroacetate) Salt] |

| Compound | IC50 (BRD4-BD2) [nM] | IC50 (BRD4-BD1) [nM] |
| --- | --- | --- |
| Cc1nnc2ccc3c(cc(-c4ncco4)n3Cc3ccccc3)n12 [Example 143, 6-benzyl-1-methyl-7-(1,3-oxazol-2-yl)-6H-pyrrolo[2,3-e][1,2,4]triazolo[4,3-a]pyridine Trifluoroacetate Salt] | ≤ 100 | ≤ 100 |
